Consider 10 molecules from patent EP0785211A1, “New substituted 19-nor-pregnane derivatives” (LABORATOIRE THERAMEX, priority 1996, dated 1997).

The IC50 is the concentration at which inhibition is half-maximal.

The target of series [1] is T1, human T47-D cell progesterone receptor (Homo sapiens, UniProt P06401).
T1 construct: Human PR are readily available in high amounts from the T47-D cell line in culture; endogenous in cells; host or cells: T47-D human breast cancer cell line
T1 sequence (P06401 1-933): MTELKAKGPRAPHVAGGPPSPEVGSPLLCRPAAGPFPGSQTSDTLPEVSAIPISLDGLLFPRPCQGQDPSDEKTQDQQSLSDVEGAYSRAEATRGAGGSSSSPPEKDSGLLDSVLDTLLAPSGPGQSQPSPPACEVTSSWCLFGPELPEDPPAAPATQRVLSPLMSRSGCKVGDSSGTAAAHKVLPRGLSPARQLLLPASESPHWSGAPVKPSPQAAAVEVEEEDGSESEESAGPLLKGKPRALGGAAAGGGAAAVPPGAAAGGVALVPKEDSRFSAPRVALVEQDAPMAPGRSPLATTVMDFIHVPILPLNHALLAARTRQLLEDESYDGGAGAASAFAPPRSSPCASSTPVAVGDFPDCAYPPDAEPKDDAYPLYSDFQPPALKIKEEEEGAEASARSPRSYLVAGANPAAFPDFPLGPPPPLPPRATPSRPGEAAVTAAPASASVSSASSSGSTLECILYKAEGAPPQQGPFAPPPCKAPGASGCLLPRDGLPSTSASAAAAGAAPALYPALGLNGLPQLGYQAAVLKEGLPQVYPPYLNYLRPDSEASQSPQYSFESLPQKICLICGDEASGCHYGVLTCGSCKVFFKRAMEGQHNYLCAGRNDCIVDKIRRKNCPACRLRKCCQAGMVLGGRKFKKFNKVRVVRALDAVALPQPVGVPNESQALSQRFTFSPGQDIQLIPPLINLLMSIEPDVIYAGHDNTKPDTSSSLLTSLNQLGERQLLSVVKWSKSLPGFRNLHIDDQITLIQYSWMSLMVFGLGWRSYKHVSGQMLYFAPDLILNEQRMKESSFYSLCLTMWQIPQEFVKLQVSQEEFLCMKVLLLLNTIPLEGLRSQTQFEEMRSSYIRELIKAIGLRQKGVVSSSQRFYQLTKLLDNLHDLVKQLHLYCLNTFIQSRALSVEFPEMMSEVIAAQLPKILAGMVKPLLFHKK
Nature of the series: Relative binding affinity to human T47-D cell progesterone receptor (competition against [3H]-ORG 2058). Particulars: for RBA: relative binding affinity, nomegestrol acetate as reference = 100%.
Method: Relative binding affinities (RBA) for the human T47-D cell PR are determined as previously described (J. Botella, et al., J. Steroid Biochem. Molec. Biol., 1994, 50 : 41-47) using [^3H]-ORG 2058 as the labelled specific ligand (G. Fleischmann et al., Biochim. Biophys. Acta, 1978, 540 : 500-517) and nomegestrol acetate as the non-radioactive reference progestin. Competitive incubations were performed against 2 nM of [^3H]-ORG 2058 for 3 hours at 4°C with six different concentrations of non-labelled steroid, chosen between 4 and 256 nM following a 1/2^n dilution scheme. Displacement curves were fitted for each experiment, and the concentration inhibiting 50% of the specific binding of [^3H]-ORG 2058 was calculated for each curve (IC50).

Series [2] has as its system uterus of estrogen-primed immature female rabbits. Nature of the series: Clauberg-McPhail test by oral administration (endometrial transformation, "dentelle"). In kind it is in vivo, rabbit. Particulars: for Relative activity: relative to nomegestrol acetate = 100%; for ED50: total dose giving mean McPhail grade equal to 2, maximal administered dose 0.75 mg. An excerpt:
The progestative activity of the compounds of formula (I) can be evaluated in two specific experimental models : the affinity for the progesterone receptor (PR) in vitro, and the endometrial tranformation of the rabbit uterus in vivo.
One specific pharmacological test has been standardized in vivo for the detection and quantitation of pseudogestagenic activity since the mid-30's : it is based on the property of the uterus of estrogen-primed immature female rabbits to respond to very slight amounts of progestin by a typical endometrial transformation into a densely packed and interlaced epithelial network called "dentelle". The original test schedule, which includes 6 days of estrogen priming (total subcutaneous dose of 30 µg/rabbit of estradiol benzoate) followed by 5 days of progestative treatment, was designed as early as 1930 by C. Clauberg, Zentr. Gynäkol. 1930, 54 : 2757-2770. The semi-quantitative scale used to grade the intensity of the microscopical appearance of the "dentelle" was set up by M.K. McPhail, J. Physiol (London), 1934, 83, 145-156. This overall Clauberg-McPhail procedure has been extensively used to screen steroids for putative progestative activity in vivo and is still part of the basic hormonal profile of any new progestin such as norgestimate (A. Phillips et al., Contraception, 1987, 36, 181-192) or desogestrel (J. Van der Vies et al.,Arzneim. Forsch./Drug Res. 1983, 33, 231-236).
The progestative potency is inversely related to the dose needed to induce a half-maximal stimulation of the "dentelle", i.e. to record a mean McPhail grade equal to 2. This ED50 is deduced for the dose-response curve and expressed in total dose/rabbit/5 days. All compounds were tested for activity only following oral administration.

In series [3] the test system is immature castrated male rats. Nature of the series: Residual androgenic activity: hypertrophy of ventral prostate and seminal vesicles after 10 daily administrations. Type of series: in vivo, rat. Particulars: for Seminal Vesicle / Ventral Prostate: mean ± s.e.m. of 8 animals; for androgenic potential (activity on the growth of male accessory sex organs): result in words, up to 20 mg/animal/day. An excerpt: The residual androgenic potential is an important feature to evaluate for any new progestin, because it is highly predictive of androgenic side-effects in women. One pharmacological model of androgenic activity has been standardized to screen steroids or related compounds in immature castrated male rats, using the hypertrophy of the ventral prostate and seminal vesicles as the endpoint, following 10 daily administrations (R.I. Dorfman, in Methods in Hormone Research, volume 2, LONDON, Academic Press, 1962 : 275-313; A.G. Hilgar et D.J. Hummel, Androgenic and Myogenic Endocrine Bioassay Data, edited by the U.S. Department of Health, Education and Welfare, […].C., 1964).
Medroxyprogesterone acetate is a 6α-methylpregnene derivative which, besides its main progestative activity, is well-known for its weak androgenic properties (M. Tausk et J. de Visser, In International Encyclopedia of Pharmacology and Therapeutics, Section 48 : Progesterone, Progestational Drugs and Antifertility Agents, volume II, OXFORD, Pergamon Press, 1972 : 35-216); it was therefore chosen as a reference compound in the testing for residual androgenic activity of test examples according to the invention.
The compounds of examples 2 and 7 were tested for residual androgenic properties in the immature castrated male rat model by oral administration (PO), in comparison with medroxyprogesterone acetate, in two different experiments (ventral prostate and seminal vesical hypertrophy), as described above; testosterone was used as a standard androgenic agent by subcutaneous injection (SC).

[4] abbreviates: Table 3 experiment, SC, 0,05 mg/animal/day.
Setting [5] is: Table 4 experiment, SC, 0,05 mg/animal/day.

Read-outs that look alike come from different tables or passages of the source. Marks after values point to notes of the source that are not given here.

In the case of `CC(=O)O[C@]1(C(C)=O)C[C@@H](C)[C@H]2[C@@H]3C=C(C)C4=CC(=O)CC[C@@H]4[C@H]3CC[C@@]21C` [Example 1, 17α-acetoxy-6,15β-dimethyl-3,20-dioxo-19-nor-pregna-4,6-diene], in series [1], the IC50 was determined as 38 ± 10.3 nM and the RBA is 43%. In series [2], the Relative activity was below 18% and the ED50 is above 0.750 mg/rabbit/5 days.

Consider `CC(=O)O[C@]1(C(C)=O)C[C@@H](C)[C@H]2[C@@H]3C[C@H](C)C4=CC(=O)CC[C@@H]4[C@H]3CC[C@@]21C` [Example 2, 17α-acetoxy-6α,15β-dimethyl-3,20-dioxo-19-nor-pregna-4-ene], for which, in series [1], the IC50 worked out at 28.8 ± 5.6 nM and the RBA is listed as 57%. For the same molecule, in series [2], the Relative activity was determined as 165% and the ED50 amounted to 0.080 mg/rabbit/5 days. Also, the “Seminal Vesicle” value in series [3] (Table 3 experiment, PO, 20 mg/animal/day, castrated controls 10.4 ± 0.4) is 12.1 ± 0.7 ns mg. Besides, the “Ventral Prostate” value in series [3] (Table 3 experiment, PO, 20 mg/animal/day, castrated controls 14.6 ± 1.4) was 13.0 ± 1.1 ns mg. Moreover, the “androgenic potential (activity on the growth of male accessory sex organs)” value in series [3] (PO) is “totally devoid of any activity on the growth of male accessory sex organs”.

In series [1], `CC(=O)O[C@]1(C(C)=O)[C@H]2C[C@H]2[C@H]2[C@@H]3C=C(C)C4=CC(=O)CC[C@@H]4[C@H]3CC[C@@]21C` [Example 6, 17α-acetoxy-6-methyl-15β,16β-methylene-3,20-dioxo-19-nor-pregna-4,6-diene] had an IC50 of 21.1 ± 6 nM and an RBA of 78%. Moreover, in series [2], the Relative activity is below 18% and the ED50 is given as above 0.750 mg/rabbit/5 days.

As to `CC(=O)O[C@]1(C(C)=O)[C@H]2C[C@H]2[C@H]2[C@@H]3C[C@H](C)C4=CC(=O)CC[C@@H]4[C@H]3CC[C@@]21C` [Example 7, 17α-acetoxy-6α-methyl-15β,16β-methylene-3,20-dioxo-19-nor-pregna-4-ene], in series [1], the IC50 turned out to be 19.7 ± 3 nM and the RBA is listed as 83%. In series [2], the Relative activity stood at 54% and the ED50 came to 0.245 mg/rabbit/5 days. For the same molecule, the “Ventral Prostate” value in series [3] (Table 4 experiment, PO, 20 mg/animal/day, castrated controls 12.0 ± 0.9) turned out to be 16.5 ± 0.9 mg. In series [3] (Table 4 experiment, PO, 20 mg/animal/day, castrated controls 12.3 ± 0.7), the “Seminal Vesicle” value turned out to be 13.9 ± 0.8 ns mg. Moreover, in series [3] (PO), the “androgenic potential (activity on the growth of male accessory sex organs)” value is listed as “very limited androgenic potential”.

As to `CCO[C@]1(C(C)=O)[C@H]2C[C@H]2[C@H]2[C@@H]3C[C@H](C)C4=CC(=O)CC[C@@H]4[C@H]3CC[C@@]21C` [Example 8, 17α-ethoxy-15β,16β-methylene-6α-methyl-3,20-dioxo-19-nor-pregna-4-ene], in series [1] (against 2 nM [3H]-ORG 2058, 3 hours at 4°C, mean ± s.e.m.), the IC50 was found to be 21.1 ± 6 nM. The molecule also had an RBA in series [1] of 78%. In series [2], the Relative activity is given as 99% and the ED50 was 0.133 mg/rabbit/5 days.

Take `CCO[C@]1(C(C)=O)[C@H]2C[C@H]2[C@H]2[C@@H]3C=C(C)C4=CC(=O)CC[C@@H]4[C@H]3CC[C@@]21C` [Example 9, 17α-ethoxy-15β,16β-methylene-6-methyl-20-oxo-19-nor-pregna-4,6-diene]: in series [1], the IC50 came to 32.3 ± 5.3 nM and the RBA is 51%.

As to `CC(=O)OC1(C(C)=O)C2CC2C2C3C(C)C(C)C4=CC(=O)CCC4C3CCC21C` (stereo not drawn) [Example 10, 17α-acetoxy-6α,7α-dimethyl-15β,16β-methylene-3,20-dioxo-19-nor-pregna-4-ene], in series [2], the Relative activity is recorded as 22% and the ED50 is on record as 0.600 mg/rabbit/5 days.

Consider `CC(=O)O[C@]1(C(C)=O)CC[C@H]2[C@@H]3[C@H](C)[C@H](C)C4=CC(=O)CC[C@@H]4[C@H]3CC[C@@]21C` [Example 11, 17α-acetoxy-6α,7α-dimethyl-3,20-dioxo-19-nor-pregna-4-ene], for which, in series [1], the IC50 turned out to be 25.5 ± 5.3 nM and the RBA came out at 64%. In addition, in series [2], the Relative activity turned out to be 132% and the ED50 is 0.100 mg/rabbit/5 days.

As to `CC(=O)O[C@]1(C(C)=O)CC[C@H]2[C@@H]3C=C(C)C4=CC(=O)CC[C@@H]4[C@H]3CC[C@@]21C` [Nomegestrol acetate, reference compound], the IC50 in series [1] (against 2 nM [3H]-ORG 2058, 3 hours at 4°C, mean ± s.e.m., read-out: IC50) was determined as 16.4 ± 1.3 nM. The molecule further returned an RBA in series [1] of 100%. Also, in series [2], the Relative activity was 100% and the ED50 is 0.132 ± 0.013^(a) (0.108/0.150/0.138) mg/rabbit/5 days.

Regarding `C[C@]12CC[C@H]3[C@@H](CCC4=CC(=O)CC[C@@]43C)[C@@H]1CC[C@@H]2O` [Testosterone, reference compound], in series [3] (setting [4]), the “Seminal Vesicle” value was 85.9 ± 6.8 mg and the “Ventral Prostate” value is recorded as 85.1 ± 5.9 mg. Also, in series [3] (setting [5]), the “Seminal Vesicle” value is 90.3 ± 6.3 mg and the “Ventral Prostate” value worked out at 90.4 ± 4.4 mg.
